Test results taken from ChEMBL document CHEMBL1153579, “Knowledge based identification of MAO-B selective inhibitors using pharmacophore and structure based virtual screening models” (Eur J Med Chem, 2009).

Target: T1, Amine oxidase [flavin-containing] B (Homo sapiens, UniProt P27338)
T1 sequence (P27338 whole entry): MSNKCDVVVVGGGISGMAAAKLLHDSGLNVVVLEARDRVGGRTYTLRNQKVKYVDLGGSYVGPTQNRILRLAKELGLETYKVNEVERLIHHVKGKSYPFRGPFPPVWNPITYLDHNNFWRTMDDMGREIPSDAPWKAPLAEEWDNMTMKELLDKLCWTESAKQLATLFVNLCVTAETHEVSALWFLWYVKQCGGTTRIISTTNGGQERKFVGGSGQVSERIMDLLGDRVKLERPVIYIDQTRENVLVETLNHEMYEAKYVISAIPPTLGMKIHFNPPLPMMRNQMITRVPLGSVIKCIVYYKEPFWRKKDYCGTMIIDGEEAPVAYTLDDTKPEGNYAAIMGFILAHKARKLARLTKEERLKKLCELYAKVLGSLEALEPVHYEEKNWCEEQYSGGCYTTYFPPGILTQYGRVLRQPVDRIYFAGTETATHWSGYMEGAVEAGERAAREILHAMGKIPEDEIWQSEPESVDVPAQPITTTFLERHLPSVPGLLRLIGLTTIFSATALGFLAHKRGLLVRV
Test: Inhibition of MAOB

Row | IC50 | SMILES
1 | 92 µM | COc1ccc(C2=NN(C(=S)Nc3ccccc3)C(c3cccs3)C2)cc1 (configuration not stated)
2 | 22 µM | CCNC(=S)N1N=C(c2ccc(OC)cc2)CC1c1cccs1 (configuration not stated)
3 | 25 µM | COc1ccc(C2CC(c3ccccc3)=NN2C(C)=O)cc1OC (configuration not stated)
4 | 40 µM | COc1ccc(C2=NN(C(C)=O)C(c3ccccc3C)C2)c(OC)c1 (configuration not stated)

Continued, compound first:

Row | SMILES | IC50
5 | COc1cc(O)ccc1O | 8.9 µM
6 | C=CNC(=S)N1N=C(c2ccc(OC)cc2)CC1c1cccs1 (configuration not stated) | 65 µM
7 | NC1CC1(F)c1ccccc1 (configuration not stated) | 19 µM
8 | C=CCNC(=S)N1N=C(c2ccc(C)cc2)CC1c1cccs1 (configuration not stated) | 240 µM
9 | Cc1ccc(C2(F)CC2N)cc1 (configuration not stated) | 13 µM
10 | Oc1ccc(/C=C\c2cc(O)cc(O)c2)cc1 [CIS-RESVERATROL] | 61 µM
11 | CCOC(=O)/C=C/c1ccc(O)c(OC)c1 [ETHYL FERULATE] | 6.7 µM
12 | CC(=O)NC[C@H]1CN(c2ccc(N3CCOCC3)c(F)c2)C(=O)O1 [LINEZOLID] | 17 µM
